Experimental data published in paper PMC12030706, “Novel ^177Lu-Labeled [Thz^14]Bombesin(6–14) Derivatives with Low Pancreas Accumulation for Targeting Gastrin-Releasing Peptide Receptor-Expressing Cancer” (Pharmaceuticals, 2025).

Columns and labels:
[1] = tested on: PC-3 tumor-bearing mice; assay: Ex vivo biodistribution in PC-3 tumor-bearing mice
Procedure: (§1) SPECT/CT imaging experiments were performed using an MILabs (Houten, The Netherlands) U-SPECT-II/CT scanner with a custom-made ultra-high-sensitivity big mouse collimator (2 mm pinhole size) following previously reported procedures. […] Male NOD.Cg-Rag1^tm1Mom Il2rg^tm1Wjl/SzJ (NRG) mice were used in these experiments because of their immunodeficient characteristics and excellent radiation tolerance. Mice were anaesthetized and subcutaneously implanted with 5 × 10^6 PC-3 prostate cancer cells (100 µL; 1:1 PBS/Matrigel) behind the left shoulder. SPECT/CT imaging and biodistribution studies were performed once the tumors reached a diameter of 5–8 mm, typically after approximately 4 weeks of growth.
(§2) For ex vivo biodistribution studies, the mice were injected with ~2–6 MBq of the radioligand. […] Blocking study was conducted at 1 h post-injection via co-injection of the radioligand with 100 μg of [D-Phe^6,Leu-NHEt^13,des-Met^14]Bombesin(6–14). Organs/tissues of interested were collected, weighed, and measured using an automatic gamma counter.

[2] = Ex vivo biodistribution in PC-3 tumor-bearing mice; settings: mouse; for tissue to tissue ratio at 1 h / tissue to tissue ratio at 4 h / tissue to tissue ratio at 24 h / tissue to tissue ratio at 72 h / tissue to tissue ratio at 120 h: male, NOD.Cg-Rag1^tm1Mom Il2rg^tm1Wjl/SzJ (NRG), total radioactivity
Procedure: as §1, §2

[3] = 1 h blocked (co-injected with 100 µg [D-Phe6,Leu-NHEt13,des-Met14]Bombesin(6-14))
[4] = 1 h post-injection, 100 µg [D-Phe6,Leu-NHEt13,des-Met14]Bombesin(6–14)

For `CC(C)C[C@H](NC(=O)[C@H](Cc1cnc[nH]1)N(C)C(=O)CNC(=O)[C@@H](NC(=O)[C@H](C)NC(=O)[C@H](Cc1c[nH]c2ccccc12)NC(=O)[C@H](CCC(N)=O)NC(=O)[C@@H](Cc1ccccc1)NC(=O)CN1CCC(NC(=O)CN2CCN(CC(=O)O)CCN(CC(=O)O)CCN(CC(=O)O)CC2)CC1)C(C)(C)C)C(=O)N1CSC[C@H]1C(N)=O` [[^177Lu]Lu-LW01110, metal not drawn], the Uptake in lungs [1, 3] was 0.52 ± 0.08 %ID/g, the Uptake in muscle [1, 3] was 0.14 ± 0.03 %ID/g and the Tumor/blood uptake ratio ([1]; 1 h post-injection) was 15.9 ± 1.15. The “Uptake in adrenal glands” value ([1]; 1 h post-injection) was 1.22 ± 0.38 %ID/g, the Uptake in blood ([1]; 1 h post-injection) was 0.69 ± 0.06 %ID/g and the Uptake in bone ([1]; 1 h post-injection) was 0.14 ± 0.05 %ID/g. For the same compound, the Uptake in brain ([1]; 1 h post-injection) was 0.03 ± 0.00 %ID/g, the Uptake in liver ([1]; 1 h post-injection) was 0.40 ± 0.05 %ID/g and the Uptake in lungs ([1]; 1 h post-injection) was 0.69 ± 0.12 %ID/g. For the same compound, the Uptake in testes ([1]; 1 h post-injection) was 0.23 ± 0.04 %ID/g, the “reduction of average pancreas uptake by co-injection of blocker” value [1, 4] was 76% and the “reduction of average tumor uptake by co-injection of blocker” value [1, 4] was 73%. For the same compound, the “Uptake in adrenal glands” value ([1]; 4 h post-injection) was 1.02 ± 0.33 %ID/g, the Uptake in brain ([1]; 4 h post-injection) was 0.03 ± 0.02 %ID/g and the Uptake in heart ([1]; 4 h post-injection) was 0.06 ± 0.06 %ID/g. The Uptake in liver ([1]; 4 h post-injection) was 0.23 ± 0.07 %ID/g, the Uptake in lungs ([1]; 4 h post-injection) was 0.23 ± 0.11 %ID/g and the Uptake in muscle ([1]; 4 h post-injection) was 0.03 ± 0.01 %ID/g. For the same compound, the Uptake in testes ([1]; 4 h post-injection) was 0.06 ± 0.05 %ID/g, the Uptake in heart ([1]; 24 h post-injection) was 0.03 ± 0.00 %ID/g and the Uptake in spleen ([1]; 24 h post-injection) was 0.12 ± 0.02 %ID/g. The “Uptake in adrenal glands” value ([1]; 72 h post-injection) was 0.41 ± 0.06 %ID/g, the Uptake in kidneys ([1]; 72 h post-injection) was 0.52 ± 0.10 %ID/g and the “Uptake in large intestine” value ([1]; 72 h post-injection) was 0.23 ± 0.04 %ID/g. For the same compound, the Uptake in lungs ([1]; 72 h post-injection) was 0.06 ± 0.03 %ID/g, the Uptake in pancreas ([1]; 72 h post-injection) was 1.03 ± 0.30 %ID/g and the “Uptake in small intestine” value ([1]; 72 h post-injection) was 0.09 ± 0.03 %ID/g. For the same compound, the “Uptake in large intestine” value ([1]; 120 h post-injection) was 0.09 ± 0.02 %ID/g, the Uptake in lungs ([1]; 120 h post-injection) was 0.03 ± 0.03 %ID/g and the “Uptake in small intestine” value ([1]; 120 h post-injection) was 0.03 ± 0.00 %ID/g. For the same compound, the “Uptake in large intestine” value ([1]; mouse, in vivo, 100 ug, 1 h) was 0.29 ± 0.08 %ID/g, the “uptake in PC-3 tumor xenografts cleared within 24 h” value ([1]; relative to 1 h uptake) was 37% and the tissue to tissue ratio at 1 h ([2]; tumor/blood, Tumor/blood uptake ratio, 1 h blocked (co-injected with 100 µg [D-Phe6,Leu-NHEt13,des-Met14]Bombesin(6-14))) was 5.32 ± 0.87. The tissue to tissue ratio at 1 h ([2]; tumor/blood, Tumor/blood uptake ratio, 1 h post-injection) was 15.9 ± 1.55, the tissue to tissue ratio at 4 h ([2]; tumor/blood, Tumor/blood uptake ratio, 4 h post-injection) was 234 ± 53.9 and the tissue to tissue ratio at 24 h ([2]; tumor/blood, Tumor/blood uptake ratio, 24 h post-injection) was 1220 ± 229. The tissue to tissue ratio at 72 h ([2]; tumor/blood, Tumor/blood uptake ratio, 72 h post-injection) was 1330 ± 177, the tissue to tissue ratio at 120 h ([2]; tumor/blood, Tumor/blood uptake ratio, 120 h post-injection) was 1310 ± 412 and the tissue to tissue ratio at 1 h ([2]; tumor/kidney, Tumor/kidney uptake ratio, 1 h blocked (co-injected with 100 µg [D-Phe6,Leu-NHEt13,des-Met14]Bombesin(6-14))) was 0.85 ± 0.1. For the same compound, the tissue to tissue ratio at 1 h ([2]; tumor/kidney, Tumor/kidney uptake ratio, 1 h post-injection) was 2.96 ± 0.43, the tissue to tissue ratio at 4 h ([2]; tumor/kidney, Tumor/kidney uptake ratio, 4 h post-injection) was 3.27 ± 0.89 and the tissue to tissue ratio at 24 h ([2]; tumor/kidney, Tumor/kidney uptake ratio, 24 h post-injection) was 4.86 ± 0.64. The tissue to tissue ratio at 72 h ([2]; tumor/kidney, Tumor/kidney uptake ratio, 72 h post-injection) was 8.92 ± 1.62, the tissue to tissue ratio at 120 h ([2]; tumor/kidney, Tumor/kidney uptake ratio, 120 h post-injection) was 11.3 ± 1.27 and the tissue to tissue ratio at 1 h ([2]; tumor/muscle, Tumor/muscle uptake ratio, 1 h blocked (co-injected with 100 µg [D-Phe6,Leu-NHEt13,des-Met14]Bombesin(6-14))) was 21.5 ± 3.27. It also gave a tissue to tissue ratio at 1 h ([2]; tumor/muscle, Tumor/muscle uptake ratio, 1 h post-injection) of 76.2 ± 10.1, a tissue to tissue ratio at 4 h ([2]; tumor/muscle, Tumor/muscle uptake ratio, 4 h post-injection) of 392 ± 101 and a tissue to tissue ratio at 24 h ([2]; tumor/muscle, Tumor/muscle uptake ratio, 24 h post-injection) of 651 ± 95. It also gave a tissue to tissue ratio at 72 h ([2]; tumor/muscle, Tumor/muscle uptake ratio, 72 h post-injection) of 647 ± 311, a tissue to tissue ratio at 120 h ([2]; tumor/muscle, Tumor/muscle uptake ratio, 120 h post-injection) of 776 ± 314 and a tissue to tissue ratio at 1 h ([2]; tumor/pancreas, Tumor/pancreas uptake ratio, 1 h blocked (co-injected with 100 µg [D-Phe6,Leu-NHEt13,des-Met14]Bombesin(6-14))) of 1.17 ± 0.31. It also gave a tissue to tissue ratio at 1 h ([2]; tumor/pancreas, Tumor/pancreas uptake ratio, 1 h post-injection) of 0.99 ± 0.11, a tissue to tissue ratio at 4 h ([2]; tumor/pancreas, Tumor/pancreas uptake ratio, 4 h post-injection) of 1.87 ± 0.37 and a tissue to tissue ratio at 24 h ([2]; tumor/pancreas, Tumor/pancreas uptake ratio, 24 h post-injection) of 2.22 ± 0.25. The tissue to tissue ratio at 72 h ([2]; tumor/pancreas, Tumor/pancreas uptake ratio, 72 h post-injection) was 4.58 ± 0.68, the tissue to tissue ratio at 120 h ([2]; tumor/pancreas, Tumor/pancreas uptake ratio, 120 h post-injection) was 6.6 ± 1.14 and the tissue uptake at 1 h ([2]; PC-3 tumor, 100 ug, Uptake in PC-3 tumor, 1 h blocked (co-injected with 100 µg [D-Phe6,Leu-NHEt13,des-Met14]Bombesin(6-14))) was 2.99 ± 0.42 %ID/g. It also gave a tissue uptake at 1 h ([2]; PC-3 tumor, Uptake in PC-3 tumor, 1 h post-injection) of 11 ± 1.03 %ID/g, a tissue uptake at 4 h ([2]; PC-3 tumor, Uptake in PC-3 tumor, 4 h post-injection) of 10.1 ± 1.4 %ID/g and a tissue uptake at 24 h ([2]; PC-3 tumor, Uptake in PC-3 tumor, 24 h post-injection) of 6.9 ± 1.34 %ID/g. It also gave a tissue uptake at 72 h ([2]; PC-3 tumor, Uptake in PC-3 tumor, 72 h post-injection) of 4.72 ± 1.42 %ID/g and a tissue uptake at 120 h ([2]; PC-3 tumor, Uptake in PC-3 tumor, 120 h post-injection) of 2.23 ± 0.33 %ID/g.
